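Growth conditions: 96-well plates. Treatment: test compound, 48 hours, 5 concentrations. Analysis: linear interpolation between bracketing concentrations; unreached endpoints set to highest concentration. Here, GI50 denotes the concentration required for 50% inhibition of growth. At the TGI there is no net growth.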
Columns and labels:
Assay in all cases: NCI-60 cell line screen, 48 h
UO-31 renal = system: UO-31 renal
SF-295 CNS = system: SF-295 CNS
NCI-H522 lung = system: NCI-H522 lung
SF-539 CNS = system: SF-539 CNS
NCI-H226 lung = system: NCI-H226 lung
SF-268 CNS = system: SF-268 CNS
M14 melanoma = system: M14 melanoma
CCRF-CEM leukemia = system: CCRF-CEM leukemia
HOP-92 NSCLC = system: HOP-92 NSCLC
SK-OV-3 ovarian = system: SK-OV-3 ovarian
COLO 205 colon = system: COLO 205 colon
T-47D breast = system: T-47D breast
UACC-62 melanoma = system: UACC-62 melanoma
OVCAR-3 ovarian = system: OVCAR-3 ovarian
HCT-116 colon = system: HCT-116 colon
NCI-H23 lung = system: NCI-H23 lung
SK-MEL-2 melanoma = system: SK-MEL-2 melanoma
HOP-62 NSCLC = system: HOP-62 NSCLC
HCC-2998 colon = system: HCC-2998 colon
MDA-MB-468 breast = system: MDA-MB-468 breast
HS 578T breast = system: HS 578T breast
PC-3 prostate = system: PC-3 prostate
UACC-257 melanoma = system: UACC-257 melanoma
SNB-75 CNS = system: SNB-75 CNS
K-562 leukemia = system: K-562 leukemia
BT-549 breast = system: BT-549 breast
HT29 colon = system: HT29 colon
KM12 colon = system: KM12 colon
A549 NSCLC = system: A549 NSCLC
OVCAR-5 ovarian = system: OVCAR-5 ovarian
OVCAR-4 ovarian = system: OVCAR-4 ovarian
HCT-15 colon = system: HCT-15 colon
NCI-H460 lung = system: NCI-H460 lung
SK-MEL-5 melanoma = system: SK-MEL-5 melanoma
TK-10 renal = system: TK-10 renal
MOLT-4 leukemia = system: MOLT-4 leukemia
MCF7 breast = system: MCF7 breast
NCI/ADR-RES ovarian = system: NCI/ADR-RES ovarian
ACHN renal = system: ACHN renal
RPMI-8226 leukemia = system: RPMI-8226 leukemia
CAKI-1 renal = system: CAKI-1 renal
SK-MEL-28 melanoma = system: SK-MEL-28 melanoma
SW-620 colon = system: SW-620 colon
MDA-MB-435 = system: MDA-MB-435
SR leukemia = system: SR leukemia
OVCAR-8 ovarian = system: OVCAR-8 ovarian
DU-145 prostate = system: DU-145 prostate
HL-60(TB) leukemia = system: HL-60(TB) leukemia
MDA-MB-231 breast = system: MDA-MB-231 breast
IGROV1 ovarian = system: IGROV1 ovarian
EKVX NSCLC = system: EKVX NSCLC
RXF 393 renal = system: RXF 393 renal
A498 renal = system: A498 renal
MALME-3M melanoma = system: MALME-3M melanoma
786-0 renal = system: 786-0 renal
SN12C renal = system: SN12C renal
SNB-19 CNS = system: SNB-19 CNS
U251 CNS = system: U251 CNS
LOX IMVI melanoma = system: LOX IMVI melanoma

Work on O=C(N/N=C/c1ccc(Br)o1)c1[nH]c2ccc(Br)cc2c1-c1ccccc1 yielded a GI50 (UO-31 renal) of 679 nM, a TGI (UO-31 renal) of 28800 nM and a GI50 (SF-295 CNS) of 353 nM. For the same compound, the TGI (SF-295 CNS) was over 38600 nM, the GI50 (NCI-H522 lung) was 177 nM and the TGI (NCI-H522 lung) was 549 nM. It also gave a GI50 (SF-539 CNS) of 226 nM, a TGI (SF-539 CNS) of 562 nM and a GI50 (NCI-H226 lung) of 511 nM. The TGI (NCI-H226 lung) was 6320 nM, the GI50 (SF-268 CNS) was 861 nM and the TGI (SF-268 CNS) was over 52900 nM. For the same compound, the GI50 (M14 melanoma) was 351 nM, the TGI (M14 melanoma) was 30200 nM and the GI50 (CCRF-CEM leukemia) was 311 nM. It also gave a TGI (CCRF-CEM leukemia) of 17900 nM, a GI50 (HOP-92 NSCLC) of 1140 nM and a TGI (HOP-92 NSCLC) of 32700 nM. For the same compound, the GI50 (SK-OV-3 ovarian) was 731 nM, the TGI (SK-OV-3 ovarian) was over 65400 nM and the GI50 (COLO 205 colon) was 227 nM. For the same compound, the TGI (COLO 205 colon) was 482 nM, the GI50 (T-47D breast) was 4180 nM and the TGI (T-47D breast) was over 100000 nM. It also gave a GI50 (UACC-62 melanoma) of 395 nM, a TGI (UACC-62 melanoma) of over 76500 nM and a GI50 (OVCAR-3 ovarian) of 415 nM. It also gave a TGI (OVCAR-3 ovarian) of 17100 nM, a GI50 (HCT-116 colon) of 311 nM and a TGI (HCT-116 colon) of 4210 nM. For the same compound, the GI50 (NCI-H23 lung) was 393 nM, the TGI (NCI-H23 lung) was 29300 nM and the GI50 (SK-MEL-2 melanoma) was 407 nM. It also gave a TGI (SK-MEL-2 melanoma) of over 100000 nM, a GI50 (HOP-62 NSCLC) of 565 nM and a TGI (HOP-62 NSCLC) of 27400 nM. For the same compound, the GI50 (HCC-2998 colon) was 385 nM, the TGI (HCC-2998 colon) was 18500 nM and the GI50 (MDA-MB-468 breast) was 228 nM. The TGI (MDA-MB-468 breast) was 585 nM, the GI50 (HS 578T breast) was 323 nM and the TGI (HS 578T breast) was 12800 nM. For the same compound, the GI50 (PC-3 prostate) was 398 nM, the TGI (PC-3 prostate) was over 53800 nM and the GI50 (UACC-257 melanoma) was 2690 nM. It also gave a TGI (UACC-257 melanoma) of over 100000 nM, a GI50 (SNB-75 CNS) of 464 nM and a TGI (SNB-75 CNS) of 22800 nM. It also gave a GI50 (K-562 leukemia) of 339 nM, a TGI (K-562 leukemia) of over 44500 nM and a GI50 (BT-549 breast) of 379 nM. For the same compound, the TGI (BT-549 breast) was 2130 nM, the GI50 (HT29 colon) was 298 nM and the TGI (HT29 colon) was 2980 nM. It also gave a GI50 (KM12 colon) of 352 nM, a TGI (KM12 colon) of over 44500 nM and a GI50 (A549 NSCLC) of 383 nM. The TGI (A549 NSCLC) was 28700 nM, the GI50 (OVCAR-5 ovarian) was 372 nM and the TGI (OVCAR-5 ovarian) was 22000 nM. The GI50 (OVCAR-4 ovarian) was 5390 nM, the TGI (OVCAR-4 ovarian) was over 53300 nM and the GI50 (HCT-15 colon) was 353 nM. The TGI (HCT-15 colon) was 23900 nM, the GI50 (NCI-H460 lung) was 326 nM and the TGI (NCI-H460 lung) was 10800 nM. The GI50 (SK-MEL-5 melanoma) was 204 nM, the TGI (SK-MEL-5 melanoma) was 424 nM and the GI50 (TK-10 renal) was 5310 nM. For the same compound, the TGI (TK-10 renal) was over 46500 nM, the GI50 (MOLT-4 leukemia) was 431 nM and the TGI (MOLT-4 leukemia) was over 38200 nM. For the same compound, the GI50 (MCF7 breast) was 341 nM, the TGI (MCF7 breast) was over 100000 nM and the GI50 (NCI/ADR-RES ovarian) was 231 nM. For the same compound, the TGI (NCI/ADR-RES ovarian) was 583 nM, the GI50 (ACHN renal) was 504 nM and the TGI (ACHN renal) was 40100 nM. It also gave a GI50 (RPMI-8226 leukemia) of 415 nM, a TGI (RPMI-8226 leukemia) of over 100000 nM and a GI50 (CAKI-1 renal) of 424 nM. For the same compound, the TGI (CAKI-1 renal) was 24200 nM, the GI50 (SK-MEL-28 melanoma) was 1120 nM and the TGI (SK-MEL-28 melanoma) was 46900 nM. The GI50 (SW-620 colon) was 374 nM, the TGI (SW-620 colon) was 22900 nM and the GI50 (MDA-MB-435) was 216 nM. It also gave a TGI (MDA-MB-435) of 567 nM, a GI50 (SR leukemia) of 345 nM and a TGI (SR leukemia) of 22400 nM. For the same compound, the GI50 (OVCAR-8 ovarian) was 297 nM, the TGI (OVCAR-8 ovarian) was 2830 nM and the GI50 (DU-145 prostate) was 391 nM. It also gave a TGI (DU-145 prostate) of 14700 nM, a GI50 (HL-60(TB) leukemia) of 235 nM and a TGI (HL-60(TB) leukemia) of 690 nM. It also gave a GI50 (MDA-MB-231 breast) of 352 nM, a TGI (MDA-MB-231 breast) of 12300 nM and a GI50 (IGROV1 ovarian) of 421 nM. It also gave a TGI (IGROV1 ovarian) of over 46700 nM, a GI50 (EKVX NSCLC) of 539 nM and a TGI (EKVX NSCLC) of 59900 nM. It also gave a GI50 (RXF 393 renal) of 443 nM, a TGI (RXF 393 renal) of 21400 nM and a GI50 (A498 renal) of 23600 nM. For the same compound, the TGI (A498 renal) was over 69600 nM, the GI50 (MALME-3M melanoma) was 480 nM and the TGI (MALME-3M melanoma) was 47500 nM. For the same compound, the GI50 (786-0 renal) was 397 nM, the TGI (786-0 renal) was 6150 nM and the GI50 (SN12C renal) was 377 nM. It also gave a TGI (SN12C renal) of 14200 nM, a GI50 (SNB-19 CNS) of 455 nM and a TGI (SNB-19 CNS) of over 81800 nM. The GI50 (U251 CNS) was 337 nM, the TGI (U251 CNS) was 16900 nM and the GI50 (LOX IMVI melanoma) was 336 nM. It also gave a TGI (LOX IMVI melanoma) of 16300 nM.
